Key:
VCP [1] = target: T1, VCP (Homo sapiens, UniProt P55072); settings: literature (Chou T F et al. 2011); cited from earlier work
[2] = test system: FSOD mice (mutant SOD1(G93A)); test: climb test of motor performance in FSOD mice; type: in vivo; settings: for motor performance: figure legend (FIG. 9, FIG. 10)
Experimental: Climb test: Neurodegenerative status of the mice was tested using a climb test device developed by some of the inventors. This device is based on a flappable wire meshwork platform (10×10 cm) suspended from one corner by a rigid boom. The platform is suspended about 40 cm above a surface. The platform is fully open and the test is performed in ambient light. During the test, mice are prevented of climbing the boom by a transparent plastic disk. For the performance of the test, mice were gently transferred to the platform and allowed to explore it for 2 minutes. […] As soon as the mice reached the upper surface of the grid (all four limbs on the same side), the grid was gently flipped over so that the mice were not be allowed to rest. The number of performed climbs in the test period was counted, the test period being 11 minutes (5 min and 30 min variants have been tested as well). The climb movement to be performed by the mice involves a forceful yet brief push with fore- and hind-limbs, thus mimicking short-lived but powerful movements that are known to recruit fast motoneurons.
At day P27, mice were treated either with Eer-I (1 μg/g in 150 mM NaCl, s.c., daily) or with saline. Mice were tested at P29 and at P32.
On day P47 treatment was stopped and the mice were tested 2 days later.
Treatment dose was 1 μg/g in 150 mM NaCl, s.c., daily. Mice were treated and tested at baseline (p32), and thereafter tested in the climb test at 38, 43, 56 days of age.

[3] = test system: Mutant SOD1(G93A) transgenic mice; test: survival of mutant SOD1(G93A) transgenic mice; type: in vivo
Experimental: Survival was determined up to the day of death or euthanasia (according to the termination criteria of a righting time >30 sec).

[4] = body weight recording in treated mice; type: in vivo
Experimental: Body weight was recorded at P45, P65, P85 and then at 5-7 days intervals. Five mice per group were followed, representative individuals are shown.

[5] = test system: FSOD mice (mutant SOD1(G93A)); test: grid test of motor performance / muscle strength in FSOD mice; type: in vivo
Experimental: Motor performance was assessed by grid test, a standard task for the quantification of muscle strength and neurological impairment.

VCP [6] = target: T1, VCP; settings: literature (Wang Q et al. 2008, 2010); cited from earlier work
VCP [7] = test: VCP immunostaining intensity in lumbar spinal cord motoneurons; type: in vivo, mice
Experimental: After washing in PBS, lumbar (L2-L5) spinal cord was cryoprotected overnight in 30% sucrose. Lumbar spinal cord was embedded in OCT and sectioned at 50 μm. Sections were blocked in PBS-3% BSA −0.3% Triton X 100, and incubated double-overnight at 4 C in the same buffer plus anti VCP monoclonal antibody (Affinity Bioreagents) diluted 1:10,000 and polyclonal anti VAChT (Sigma) 1:1000. Sections were then briefly washed with PBS and incubated for 120 min at RT with goat-anti-rabbit (Alexa 647, Invitrogen) or goat-anti-mouse (Alexa 488, Invitrogen). Confocal images were acquired using an Zeiss LSM700 microscope, fitted with a 20×air objective. Images were processed using Imaris software. For the analysis of VCP labeling intensities, data were acquired with identical confocal settings, ensuring that signals at the brightest cells were not saturated, and that background levels outside clusters were still detectable. Images were then analyzed quantitatively using Image-Pro 5 software (Media Cybernetics). Signal intensities were acquired within areas inside cells, excluding areas lacking signal; background levels outside cells were subtracted from these values.

[8] = FSOD mice treated from P20, s.c. daily
[9] = FSOD mice treated from P63, s.c. daily
[10] = 1 μg/g s.c. daily from weaning (P20), vs untreated

T1 sequence (P55072 whole entry): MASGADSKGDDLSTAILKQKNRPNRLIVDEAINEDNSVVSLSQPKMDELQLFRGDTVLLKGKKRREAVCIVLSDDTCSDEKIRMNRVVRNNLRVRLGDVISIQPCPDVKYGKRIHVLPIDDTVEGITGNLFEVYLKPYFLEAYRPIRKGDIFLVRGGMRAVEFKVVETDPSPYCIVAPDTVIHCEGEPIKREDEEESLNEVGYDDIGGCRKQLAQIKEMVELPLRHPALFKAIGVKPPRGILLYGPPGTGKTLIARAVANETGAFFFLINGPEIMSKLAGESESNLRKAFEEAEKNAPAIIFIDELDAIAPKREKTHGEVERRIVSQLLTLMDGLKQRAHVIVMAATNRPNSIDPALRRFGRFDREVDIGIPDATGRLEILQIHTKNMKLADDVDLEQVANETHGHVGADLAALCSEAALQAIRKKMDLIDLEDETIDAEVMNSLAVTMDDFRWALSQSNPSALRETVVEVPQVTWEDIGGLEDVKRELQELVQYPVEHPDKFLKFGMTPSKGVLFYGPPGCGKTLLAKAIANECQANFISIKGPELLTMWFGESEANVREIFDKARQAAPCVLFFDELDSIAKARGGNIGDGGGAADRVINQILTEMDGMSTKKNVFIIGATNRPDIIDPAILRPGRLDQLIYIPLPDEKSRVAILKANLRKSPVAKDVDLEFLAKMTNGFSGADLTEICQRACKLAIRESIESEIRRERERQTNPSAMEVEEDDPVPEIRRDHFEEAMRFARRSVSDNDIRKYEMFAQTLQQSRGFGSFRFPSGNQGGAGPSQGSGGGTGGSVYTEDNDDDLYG

## c1ccc(CNc2nc(NCc3ccccc3)c3ccccc3n2)cc1 [DBEQ, N^2,N^4-Dibenzylquinazoline-2,4-diamine]
VCP [1]
  VCP inhibition (mode): reversible, ATP-competitive direct VCP inhibitor
[2]; FSOD mice
  motor performance: improves motor performance
[2]; three FSOD mice, 1 μg/g s.c. daily after day 29, tested at P31, P34, 37 and 45
  motor performance in the climb test: progressive improvement in motor performance reaching the range of wt mice

## CC1(C)C(N(O)C(=O)Nc2ccc(Cl)cc2)N(c2ccc(Cl)cc2)C(=O)N1CC(=O)NN=CC=Cc1ccc([N+](=O)[O-])o1 (stereo not shown) [Eer-I, 3-(4-Chlorophenyl)-4-[[[(4-chlorophenyl)amino]carbonyl]hydroxyamino]-5,5-dimethyl-2-oxo-1-imidazolidineacetic acid 2-[3-(5-nitro-2-furanyl)-2-propen-1-ylidene]hydrazide]
[2]; FSOD mice (n=4), 1 μg/g s.c. daily from P18, tested at P27, P37 and P47
  climb performance: comparable to wt mice
[2]; FSOD mice (n=4), after withdrawal
  climb performance upon resumption of the treatment: quickly improved
[2]; FSOD mice (n=4), resumption of treatment after withdrawal
  treatment time until performance comparable with that before withdrawal: 2 to 5 days
[2]; FSOD mice (n=4), treatment stopped on P47, tested at P49
  climb performance after 2 days of withdrawal of treatment: sharp drop in performance, down to a level comparable with that of untreated FSOD mice of the same age
[2]; [8]
  climb test performance (climb scores): markedly preserved performance, with climb scores comparable with WT mice
  duration of stable climb test performance: stable up to day P65
[2]; [9]
  climb score at day P85: returning in the range of untreated FSOD mice
  climb test performance: marked but transient improvement in performance
  increase of climb score: up to four-fold
[2]; FSOD mice, 1 μg/g s.c. daily from P27
  climb test performance after 5 days of treatment: level comparable with wt
[2]; FSOD mice, 1 μg/g s.c. daily from P27, tested at P29 and P32, vs saline
  climb test performance: marked improvement in performance
[2]; FSOD mice, FIG. 4 legend
  performance in the climb test: markedly improve
[2]; FSOD mice, FIG. 7 legend
  performance in the climb test: quickly restores performance
[3]; 1 μg/g s.c. daily since weaning (P20), n=7 per group
  survival vs untreated mutant mice: survived significantly longer
[3]; FSOD mice, FIG. 6 legend
  survival: prolongs FSOD mice survival
[4]; FIG. 5 legend
  body weight loss: delays body weight loss
[4]; 1 μg/g s.c. daily from P63
  bodyweight of FSOD mice: stabilized at a level lower than the littermates treated from weaning
[4]; 1 μg/g s.c. daily from weaning (P20)
  bodyweight of FSOD mice: stable bodyweight until day P140-145
[4]; wild type mice, 1 μg/g s.c. daily
  body weight of wild type mice: expected progressive increase in body weight
[4]; wild type mice, 1 μg/g s.c. daily, from body weight
  overt toxicity of the treatment: lack of overt toxicity
[5]; 1 μg/g s.c. daily from P63
  grid test performance soon after beginning of treatment: fast improvement in performance
  grid test performance vs untreated counterparts: performed significantly better than their untreated counterparts
[5]; [10]
  decline in muscle strength over time (grid test): significantly slower decline
  grid test performance at the earliest time point: better performance
[5]; FIG. 3 legend
  motor disability: delays motor disability
VCP [6]
  degradation of target misfolded proteins whose translocation and disposal is dependent upon VCP: prevent the degradation of target misfolded proteins
VCP [7]; FSOD mice treated with Eer-I vs FSOD and WT controls, lumbar spinal cord
  average cytoplasmic VCP staining intensity in motoneurons: significantly reduced (to an extent comparable with WT)
VCP [7]; FSOD mice, FIG. 11 legend
  VCP upregulation: reverses VCP upregulation

## O=[N+]([O-])C=Cc1ccc2c(c1)OCO2 [Syk-inhibitor III, 3,4-Methylenedioxy-β-nitrostyrene]
VCP [1]
  VCP inhibition (mode): substantial efficacy as an irreversible inhibitor of the D2 ATPase site on VCP
[2]; FSOD mice
  motor performance: improves motor performance
[2]; two mice, 1 μg/g s.c. daily, baseline p32, tested at 38, 43, 56 days of age
  performance in the climb test: markedly improved and reached the range of performance for WT mice

Source: patent US20140314787A1, “Treatment for neurodegenerative diseases” (NOVARTIS FORSCHUNGSSTIFTUNG, ZWEIGNIEDERLASSUNG, FRIEDRICH …, priority 2011, published 2014)
